Paper PMC8201479, “Trisubstituted Pyrrolinones as Small-Molecule Inhibitors Disrupting the Protein–RNA Interaction of LIN28 and Let-7” (ACS Medicinal Chemistry Letters, 2021)
Read-outs that look alike come from different tables or passages of the source. One block for each molecule: values may come before it.

Legend:
LIN28–let-7 interaction [1] = target: T1, LIN28–let-7 interaction (Homo sapiens, UniProt Q9H9Z2); assay: Fluorescence polarization (FP) assay, LIN28A (residues 16–187) and FAM-labeled preE-let-7f-1; assay type: binding
T1 construct: Purified LIN28A (residues 16–187) was incubated at a concentration of 200 nM; His-tag (cleaved yes); made in house; host or cells: Escherichia coli BL21(DE3)
T1 sequence (Q9H9Z2 16-187): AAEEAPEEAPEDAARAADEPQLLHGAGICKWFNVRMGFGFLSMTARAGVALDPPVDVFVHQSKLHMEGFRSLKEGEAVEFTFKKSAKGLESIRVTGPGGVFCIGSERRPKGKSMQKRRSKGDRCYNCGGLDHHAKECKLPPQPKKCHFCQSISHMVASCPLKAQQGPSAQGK
Procedure: Protein expression and purification.
19 vector and overexpressed in Escherichia coli BL21(DE3). The culture was incubated at 37 °C until
the absorbance at 600 nm (OD600) reached 0.5–0.7. IPTG was added to a final concentration of
300 µM, and overnight induction was performed at 18 °C. Cells were harvested by centrifugation.
The bacterial pellet was resuspended in lysis buffer (50 mM NaH2PO4, pH 7.5, 300 mM NaCl,
0.1 mM PMSF) and lysed using a Microfluidizer (Microfluidics) . A fresh portion of 0.1 mM PMSF
and Triton X-100 (1% final concentration) were added. The lysate was cleared by ultra centrifugation
at 30000 xg and 4 °C for 1 h. The protein purification was performed using immobilized nickel
300 mM NaCl and 5 % glycerol. Gradient elution was performed with a maximum of 0.5 M imidazole.
Subsequently, the affinity tag was cleaved using His6 -TEV-protease and the protease and unspecific
binders were eliminated by a second nickel affinity chromatography. After protein concentration
LIN28A containing fractions were concentrated and applied to a High Load Superdex 75 pg 16/600
column (GE Healthcare) with gel-filtration buffer (30 mM NaH2PO4, pH 7.5, 50 mM NaCl, 5%
glycerol, 2 mM β-ME). The purified protein was concentrated and stored at -80 °C until further
Fluorescence polarization. The fluorescence polarization assay was performed in black low volume
IC50 measurements were performed with three technical
minutes with compound concentrations ranging from 0.3 nM to 100 µM in FP assay buffer (20 mM
Tris, pH 7, 100 mM NaCl, 5 mM MgCl2, 2 mM glutathione (reduced), 0.1 % NP-40). Subsequently,
FAM-labeled preE-let-7f-1 (mus musculus) ([…]-
FAM, synthesized by IDT) was added to a final concentration of 2 nM. Fluorescence polarization
(§1) was detected after incubation at room temperature using a TECAN Spark plate reader. Half maximal
inhibitory concentrations (IC50) were determined using GraphPad Prism 7. […]

LIN28–let-7 interaction [2] = target: T1, LIN28–let-7 interaction; assay: as above; assay type: binding; details: Table 1; quadruplicate; starting from 30 μM, eight concentrations; extrapolated based on the observed IC50 curves; read-out: IC50, LIN28–let-7 inhibitory activity
LIN28–let-7 complex = target: T2, LIN28–let-7 complex (Homo sapiens, UniProt Q9H9Z2); assay: Electrophoretic mobility shift assay (EMSA); assay type: binding; details: compound concentrations up to 75 µM
T2 construct: Purified LIN28A (residues 16–187) was incubated at a concentration of 200 nM; His-tag (cleaved yes); made in house; host or cells: Escherichia coli BL21(DE3)
T2 sequence (Q9H9Z2 16-187): T1 sequence (Q9H9Z2 16-187)
Procedure: as §1
inhibitory concentrations (IC50) were determined using GraphPad Prism 7.
Compound screening. High throughput screening was performed in low volume 384 well plates
(Corning 4514) with 30 µM compound, 40 nM LIN28A, and 2 nM preE-let-7f-1-FAM in FP assay
buffer. Compounds were transferred with an ECHO 520 liquid handler and protein and RNA were
added with a multidrop dispenser. Protein and RNA were added stepwise with a 30 min incubation
period in between. FP was detected after a final incubation of 15 min with an Envision plate reader
and fluorescence was measured with a Paradigm plate reader. A reaction without LIN28 served as a
negative control and one without compound was used as a positive control. The software Quattro
Workflow (Quattro Research GmbH) was used for the analysis of screening data.
Electrophoretic mobility shift assay. EMSA was used as a secondary assay to validate FP-assay hit
molecules. Purified LIN28A (residues 16–187) was incubated with compound and 5 U recombinant
ribonuclease inhibitor (Takara Bio) in EMSA reaction buffer (50 mM Tris (pH 7.5), 100 mM NaCl,
10 mM β-mercaptoethanol, 50 µM ZnCl2, 2 % DMSO, 0.01 % Tween 20, 12 % glycerol) for 2 hours
at room temperature. Subsequently, preE-let-7f-1-Cy3 (mus musculus) (GGGGUAGUGAUUUUAC
CCUGUUUAGGAGAU-Cy3, purchased from IDT) was added to a final concentration of 5 nM and
a reaction volume of 50 µL. The final concentration of LIN28A was 10 nM and compound
concentrations up to 75 µM were used. The reaction mixtures were incubated for a further 15 minutes
and 10 µL loading dye (40 % glycerol, 1.5x TAE) was added. 10 µL of each reaction was separated
in an 8 % polyacrylamide TAE gel at 4 °C and 220 V for 1 h using 0.25x TAE as running buffer. Cy3
fluorescence was detected with a ChemiDoc M P (Bio-Rad) and 2 minutes of exposure time.
Thermal shift assay. Thermal stability of the cold shock domain construct LIN28 A (residues 16–
126) with and without compound was monitored using a NanoTemper Prometheus NT.48 nano -

LIN28 [3] = test system: LIN28; design: method as in PMID 27668966; details: reported value; cited from earlier work
LIN28 [4] = test system: LIN28; design: method as in PMID 27548809; details: reported value; read-out: IC50 (ELISA); cited from earlier work
[5] = target: T3, LIN28A (16-187), untagged (human, UniProt Q9H9Z2 16-187); assay: competition (fluorescence polarization); competes with 2 nM FAM-preE-let-7f-1; FP: 20 mM Tris pH 7, 100 mM NaCl, 5 mM MgCl2, 2 mM GSH, 0.1% NP-40 (200 nM LIN28A, 2 nM RNA in IC50 assays); EMSA: 50 mM Tris pH 7.5, 100 mM NaCl, 10 mM beta-ME, 50 uM ZnCl2, 2% DMSO, 0.01% Tween 20, 12% glycerol, 2 h, room temperature; details: protein: recombinant; tags: none (His-tag cleaved by TEV); stem loop
T3 sequence: T1 sequence (Q9H9Z2 16-187)

- activity in the FP assay (LIN28–let-7 interaction [1]): FP-inactive
- IC50 (LIN28–let-7 interaction [2]): > 100 µM
- inhibition of the LIN28–let-7 complex in EMSA (LIN28–let-7 complex): did not show activity
Molecule: O=C(O)c1cccc(N2C(=O)C(O)=C(C(=O)c3ccc(Br)cc3)C2c2ccc(-c3nccs3)cc2)c1 (stereo not shown) [C903]

- IC50 (LIN28–let-7 interaction [1]; text and figures, C-labels = library sample, PH-labels = in-house resynthesized, read-out: IC50 in the FP assay): 27 µM
Molecule: CC1(C)Oc2cc(N3CCN(C(=O)OCc4ccccc4)CC3)c([N+](=O)[O-])cc2-c2c1cnn2-c1ccc(C(=O)O)cc1 [SB1301, reference compound]
- IC50 (LIN28 [3]): 4 µM

Molecule: CC(=O)N(C)c1cccc(-c2ccc3nnc(C)n3n2)c1 [compound 1632]
- IC50 (LIN28 [4]): 8 µM

B1: preE-let-7f-1, unlabeled (structured_RNA)
RNA: GGGGUAGUGAUUUUACCCUGUUUAGGAGAU
- IC50 [5]: 0.055 µM
